Results taken from patent US12029744B2, “Bicyclic heteroaryl derivatives as ectonucleotide pyrophosphatase phosphodiesterase 1 inhibitors” (Riboscience LLC, priority 2019, dated 2024).
Where a name gives a salt, the structure may show the parent alone.

Biological target: T1, ENPP1 (Homo sapiens, UniProt P22413)
T1 sequence (P22413 1-925): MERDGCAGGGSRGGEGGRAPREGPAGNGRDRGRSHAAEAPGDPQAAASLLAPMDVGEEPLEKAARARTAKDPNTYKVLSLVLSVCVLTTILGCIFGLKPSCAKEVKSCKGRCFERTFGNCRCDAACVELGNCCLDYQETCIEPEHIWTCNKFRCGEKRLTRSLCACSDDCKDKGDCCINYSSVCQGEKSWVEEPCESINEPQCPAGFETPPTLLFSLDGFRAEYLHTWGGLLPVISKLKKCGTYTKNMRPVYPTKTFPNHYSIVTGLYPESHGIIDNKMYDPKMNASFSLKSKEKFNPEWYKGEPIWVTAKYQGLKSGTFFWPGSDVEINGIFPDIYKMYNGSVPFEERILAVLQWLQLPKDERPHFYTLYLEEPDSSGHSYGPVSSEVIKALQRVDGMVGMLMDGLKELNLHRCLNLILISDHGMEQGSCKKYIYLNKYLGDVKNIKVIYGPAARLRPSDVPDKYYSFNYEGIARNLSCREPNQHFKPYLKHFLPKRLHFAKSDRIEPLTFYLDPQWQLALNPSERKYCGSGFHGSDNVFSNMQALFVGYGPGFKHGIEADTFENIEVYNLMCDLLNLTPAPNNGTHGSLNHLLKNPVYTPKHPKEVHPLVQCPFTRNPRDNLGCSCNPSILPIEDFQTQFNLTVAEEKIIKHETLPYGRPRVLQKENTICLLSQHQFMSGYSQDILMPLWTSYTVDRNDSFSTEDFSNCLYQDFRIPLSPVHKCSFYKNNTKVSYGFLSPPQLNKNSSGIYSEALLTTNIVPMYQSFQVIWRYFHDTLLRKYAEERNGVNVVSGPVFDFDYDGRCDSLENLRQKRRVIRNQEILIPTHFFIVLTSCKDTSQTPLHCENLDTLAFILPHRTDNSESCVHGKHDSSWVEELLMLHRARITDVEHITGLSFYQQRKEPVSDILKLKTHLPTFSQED
Experiment: Measurement of pNP-TMP hydrolysis by ENPP1 (enzyme activity assay, absorbance at 405 nm)
Assay type: biochemical
Conditions: substrate pNP-TMP 500 μM, KM 232 μM; Ki from IC50 by Cheng-Prusoff; read-out: Ki (pNP-TMP)
Description: Measurement of pNP-TMP Hydrolysis by ENPP1
p-Nitrophenyl thymidine 5′-monophosphate (pNP-TMP) is a synthesized substrate for ENPP1. The ENPP1 enzyme activity assay with pNP-TMP substrate was conducted as follows:
Incubation of ENPP1 with compounds was set at 25° C. for 10 min. […] For each compound dilution, wells with assay buffer (50 mM Tris-HCl, pH8.8, 250 mM NaCl, 0.1 mg/ml BSA, 1% DMSO) only but no ENPP1 were included as controls for subtraction of test compound derived absorbance at 405 nm.
Absorbance at 405 nm was recorded immediately in kinetic mode by PerkinElmer 2300 Enspire multimode plate reader.
For each inhibitor, the specific ENPP1 activity was calculated using the following equation: ENPP1 activity (pmol/min/μg)=Adjusted Vmax (OD405 nm/min)×conversion factor (pmol/OD405 nm)/amount of enzyme (μg)
Adjusted Vmax=V0×(Km+(S))/(S).
V0=(OD405 nm with ENPP1−OD405 nm ENPP1 blank)/minutes. OD405 nm was plotted, with blank subtracted, against time (minutes), the initial linear rate is V0. […]
The slope is the conversion factor. The percent ENPP1 activity for each sample was calculated using the following equation: % enzyme activity=sample enzyme activity/MAX Activity×100%.
To determine the IC50 for each compound, compound concentration values and percent enzyme activity values were inserted into GraphPad Prism (GraphPad Prism version 7.0 for Windows, GraphPad Software, La Jolla California USA, www.graphpad.com), and Prism's Transform analysis was used to convert the x-axis values (compound concentration) to logarithms. A sigmoidal variable slope nonlinear regression analysis was performed using the following equation: Y=Bottom+(Top−Bottom)/(1+10^[…])).

| Structure (SMILES) | Ki [µM] |
| --- | --- |
| O=c1[nH]cnc2c1ncn2Cc1ccc(B(O)O)cc1 [Compound 3, 4-((6-oxo-1H-purin-9-yl)methyl)phenylboronic acid] | < 1 |
| N#Cc1ccc2c(c1)ncn2Cc1ccc(P(=O)(O)O)cc1 [Compound 24, (4-((5-cyano-1H-benzo[d]imidazol-1-yl)methyl)phenyl)phosphonic acid] | < 1 |
| NC(=O)c1ccc2c(cnn2Cc2ccc(B(O)O)cc2)c1 [Compound 34, 4-((5-carbamoylindazol-1-yl)methyl)phenylboronic acid] | < 0.1 |
| COC(=O)c1ccc2c(c1)ncn2Cc1ccc(B(O)O)cc1 [Compound 41, 2,2,2-trifluoroacetic acid--(4-((5-(methoxycarbonyl)-1H-benzo[d]imidazol-1-yl)methyl)phenyl)boronic acid (1/1)] | < 0.1 |
| NC(=O)c1ccc2c(c1)ncn2Cc1ccc(P(=O)(O)O)cc1 [Compound 49, 4-((5-carbamoyl-1,3-benzodiazol-1-yl)methyl)phenylphosphonic acid] | < 1 |
| O=P(O)(O)c1ccc(Cn2ccc3c(O)nccc32)cc1 [Compound 56, (4-((4-hydroxy-1H-pyrrolo[3,2-c]pyridin-1-yl)methyl)phenyl)phosphonic acid] | < 0.1 |
| O=c1[nH]cnc2c1c(F)cn2Cc1ccc(B(O)O)cc1 [Compound 63, (4-((5-fluoro-4-oxo-3,4-dihydro-7H-pyrrolo[2,3-d]pyrimidin-7-yl)methyl)phenyl) boronic acid] | < 0.1 |
| O=P(O)(O)c1ccc(Cn2ncc3c(O)nccc32)cc1 [Compound 64, 4-((4-hydroxypyrazolo[4,3-c]pyridin-1-yl)methyl)phenylphosphonic acid] | < 0.1 |
| NC(=O)c1ccc2c(cnn2Cc2ccc(P(=O)(O)O)cc2)c1 [Compound 65, 4-((5-carbamoylindazol-1-yl)methyl) phenylphosphonic acid] | < 0.1 |

Now from value to compound:

| Ki [µM] | Structure (SMILES) |
| --- | --- |
| < 0.1 | COc1cc2ncn(Cc3ccc(B(O)O)cc3)c2cc1OC [Compound 1, 4-((5,6-dimethoxy-1,3-benzodiazol-1-yl)methyl)phenylboronic acid] |
| < 0.1 | Nc1nc2c(ncn2Cc2ccc(B(O)O)cc2)c(=O)[nH]1 [Compound 5, 4-((2-amino-6-oxo-1H-purin-9-yl)methyl)phenylboronic acid] |
| < 0.01 | OB(O)c1ccc(Cn2ccc3c(O)nccc32)cc1 [Compound 9, (4-((4-hydroxy-1H-pyrrolo[3,2-c]pyridin-1-yl)methyl)phenyl)boronic acid] |
| < 0.01 | N#Cc1ccc2c(c1)ncn2Cc1ccc(B(O)O)cc1 [Compound 15, 4-((5-cyano-1,3-benzodiazol-1-yl)methyl)phenylboronic acid] |
| < 0.01 | NC(=O)c1ccc2c(c1)ncn2Cc1ccc(B(O)O)cc1 [Compound 17, 4-((5-carbamoyl-1,3-benzodiazol-1-yl)methyl)phenylboronic acid trifluoroacetic acid salt] |
| < 0.1 | COc1cc2c(cc1C(N)=O)ncn2Cc1ccc(B(O)O)cc1 [Compound 32, 4-((5-carbamoyl-6-methoxy-1,3-benzodiazol-1-yl)methyl)phenylboronic acid] |
| < 0.01 | Cc1nc2cc(C(N)=O)ccc2n1Cc1ccc(B(O)O)cc1 [Compound 36, (4-((5-carbamoyl-2-methyl-1H-benzo[d]imidazol-1-yl)methyl)phenyl)boronic acid] |
| < 0.01 | CC(C)c1nc2cc(C(N)=O)ccc2n1Cc1ccc(B(O)O)cc1 [Compound 37, 4-((5-carbamoyl-2-isopropyl-1,3-benzodiazol-1-yl)methyl)phenylboronic acid] |
| < 0.01 | NC(=O)c1ccc2c(ncn2Cc2ccc(B(O)O)cc2)n1 [Compound 59, 4-((5-carbamoylimidazo[4,5-b]pyridin-1-yl)methyl)phenylboronic acid] |
| < 0.01 | N#Cc1ccc2c(ncn2Cc2ccc(B(O)O)cc2)n1 [Compound 70, 4-((5-cyanoimidazo[4,5-b]pyridin-1-yl)methyl)phenylboronic acid] |
